# Measured values: ChEMBL document CHEMBL1201862, “PubChem BioAssay data set” (2004)
#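 A five-concentration, 48-hour dose response in 96-well plates underlies each endpoint, interpolated linearly between surrounding concentrations. GI50 = concentration required for 50% inhibition of growth.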 The source made the active and inactive calls. Cut-off read from the data, not from the text of the source: active = GI50 up to about 1.1 µM and inactive = higher.
# Experiments:
# Test in all cases: inhibition of tumour cell growth, NCI panel, 48 h
# DMS-114 = system: DMS-114
# HOP-92 = system: HOP-92
# SW-620 = system: SW-620
# U-251 = system: U-251
# OVCAR-5 = system: OVCAR-5
# KM-20L2 = system: KM-20L2
# A549 = system: A549
# SK-MEL-2 = system: SK-MEL-2
# SK-OV-3 = system: SK-OV-3
# HT-29 = system: HT-29
# NCI-H460 = system: NCI-H460
# UACC-257 = system: UACC-257
# DLD-1 = system: DLD-1
# CCRF-CEM = system: CCRF-CEM
# HCC 2998 = system: HCC 2998
# OVCAR-3 = system: OVCAR-3
# Malme-3M = system: Malme-3M
# SNB-75 = system: SNB-75
# HCT-15 = system: HCT-15
# IGROV-1 = system: IGROV-1
# SK-MEL-5 = system: SK-MEL-5
# EKVX = system: EKVX
# LXFL 529 = system: LXFL 529
# OVCAR-8 = system: OVCAR-8
# COLO 205 = system: COLO 205
# HOP-62 = system: HOP-62
# 786-0 = system: 786-0
# UACC-62 = system: UACC-62
# A498 = system: A498
# CAKI-1 = system: CAKI-1
# M19-MEL = system: M19-MEL
# NCI-H226 = system: NCI-H226
# HL-60 = system: HL-60
# SN12C = system: SN12C
# MOLT-4 = system: MOLT-4
# LOX IMVI = system: LOX IMVI
# ACHN = system: ACHN
# SNB-78 = system: SNB-78
# K562 = system: K562
# DMS-273 = system: DMS-273
# XF498 = system: XF498
# OVCAR-4 = system: OVCAR-4
# KM12 = system: KM12
# NCI-H23 = system: NCI-H23
# HOP-18 = system: HOP-18
# SF-295 = system: SF-295
# TK-10 = system: TK-10
# SF-268 = system: SF-268
# UO-31 = system: UO-31
# SK-MEL-28 = system: SK-MEL-28
# M14 = system: M14
# NCI-H522 = system: NCI-H522
# HCT-116 = system: HCT-116
# RPMI-8226 = system: RPMI-8226
# SNB-19 = system: SNB-19
# SR = system: SR
# RXF 393 = system: RXF 393
smiles,measurement,setting,value
O=C1C=CC2(O)OCC3C=C4O[C@@H]5OC6(CCCCC6)O[C@@H]5C4[C@@H]2[C@@H]13 (some centres undefined),GI50,DMS-114,21.5 µM (inactive)
same,GI50,HOP-92,13.2 µM (inactive)
same,GI50,SW-620,27.4 µM (inactive)
same,GI50,U-251,> 100 µM (inactive)
same,GI50,OVCAR-5,31.8 µM (inactive)
same,GI50,KM-20L2,48.3 µM (inactive)
same,GI50,A549,> 100 µM (inactive)
same,GI50,SK-MEL-2,82 µM (inactive)
same,GI50,SK-OV-3,> 100 µM (inactive)
same,GI50,HT-29,22.3 µM (inactive)
same,GI50,NCI-H460,> 100 µM (inactive)
same,GI50,UACC-257,17.8 µM (inactive)
same,GI50,DLD-1,22.4 µM (inactive)
same,GI50,CCRF-CEM,8.73 µM (inactive)
same,GI50,HCC 2998,53.2 µM (inactive)
same,GI50,OVCAR-3,24.2 µM (inactive)
same,GI50,Malme-3M,30.3 µM (inactive)
same,GI50,SNB-75,35.6 µM (inactive)
same,GI50,HCT-15,17 µM
same,GI50,IGROV-1,56.4 µM (inactive)
same,GI50,SK-MEL-5,43.5 µM (inactive)
same,GI50,EKVX,38.3 µM (inactive)
same,GI50,LXFL 529,15.1 µM (inactive)
same,GI50,OVCAR-8,24.9 µM (inactive)
same,GI50,COLO 205,15.3 µM (inactive)
same,GI50,HOP-62,> 100 µM (inactive)
same,GI50,786-0,20.4 µM (inactive)
same,GI50,UACC-62,32.7 µM (inactive)
same,GI50,A498,72.4 µM (inactive)
same,GI50,CAKI-1,22.7 µM (inactive)
same,GI50,M19-MEL,21.1 µM (inactive)
same,GI50,NCI-H226,33.6 µM (inactive)
same,GI50,HL-60,16.5 µM (inactive)
same,GI50,SN12C,48 µM (inactive)
same,GI50,MOLT-4,9.25 µM (inactive)
same,GI50,LOX IMVI,42.6 µM (inactive)
same,GI50,ACHN,26.1 µM (inactive)
same,GI50,SNB-78,24.4 µM (inactive)
same,GI50,K562,14.5 µM (inactive)
same,GI50,DMS-273,50.4 µM (inactive)
same,GI50,XF498,27.2 µM (inactive)
same,GI50,OVCAR-4,22.6 µM (inactive)
same,GI50,KM12,38.5 µM (inactive)
same,GI50,NCI-H23,23.8 µM (inactive)
same,GI50,HOP-18,> 100 µM (inactive)
same,GI50,SF-295,> 100 µM (inactive)
same,GI50,TK-10,20.7 µM (inactive)
same,GI50,SF-268,33.2 µM (inactive)
same,GI50,UO-31,18.6 µM (inactive)
same,GI50,SK-MEL-28,20 µM (inactive)
same,GI50,M14,20.5 µM (inactive)
same,GI50,NCI-H522,11.3 µM (inactive)
same,GI50,HCT-116,15.8 µM (inactive)
same,GI50,RPMI-8226,16.2 µM (inactive)
same,GI50,SNB-19,> 100 µM (inactive)
COCOC1CCCC[C@@]1(OCCOCCO[C@@]1(c2ccccc2)CCCC[C@H]1OCOC)c1ccccc1 (some centres undefined),GI50,DMS-114,> 100 µM (inactive)
same,GI50,SR,> 100 µM (inactive)
same,GI50,SW-620,> 100 µM (inactive)
same,GI50,U-251,> 100 µM (inactive)
same,GI50,OVCAR-5,> 100 µM (inactive)
same,GI50,KM-20L2,> 100 µM (inactive)
same,GI50,A549,99.5 µM (inactive)
same,GI50,SK-MEL-2,> 100 µM (inactive)
same,GI50,SK-OV-3,67.9 µM (inactive)
same,GI50,HT-29,> 100 µM (inactive)
same,GI50,NCI-H460,> 100 µM (inactive)
same,GI50,UACC-257,> 100 µM (inactive)
same,GI50,DLD-1,> 100 µM (inactive)
same,GI50,CCRF-CEM,> 100 µM (inactive)
same,GI50,HCC 2998,> 100 µM (inactive)
same,GI50,OVCAR-3,> 100 µM (inactive)
same,GI50,Malme-3M,> 100 µM (inactive)
same,GI50,SNB-75,24.4 µM (inactive)
same,GI50,HCT-15,> 10 µM
same,GI50,IGROV-1,> 100 µM (inactive)
same,GI50,EKVX,37.8 µM (inactive)
same,GI50,LXFL 529,> 100 µM (inactive)
same,GI50,OVCAR-8,> 100 µM (inactive)
same,GI50,COLO 205,> 100 µM (inactive)
same,GI50,HOP-62,> 100 µM (inactive)
same,GI50,786-0,46.6 µM (inactive)
same,GI50,UACC-62,> 100 µM (inactive)
same,GI50,CAKI-1,41.1 µM (inactive)
same,GI50,M19-MEL,> 100 µM (inactive)
same,GI50,NCI-H226,> 100 µM (inactive)
same,GI50,HL-60,> 100 µM (inactive)
same,GI50,SN12C,> 100 µM (inactive)
same,GI50,MOLT-4,> 10 µM (inactive)
same,GI50,LOX IMVI,> 100 µM (inactive)
same,GI50,ACHN,87.7 µM (inactive)
same,GI50,SNB-78,55.3 µM (inactive)
same,GI50,K562,> 100 µM (inactive)
same,GI50,RXF 393,23.1 µM (inactive)
same,GI50,DMS-273,> 100 µM (inactive)
same,GI50,XF498,> 100 µM (inactive)
same,GI50,OVCAR-4,> 100 µM (inactive)
same,GI50,KM12,> 100 µM (inactive)
same,GI50,NCI-H23,> 100 µM (inactive)
same,GI50,HOP-18,> 100 µM (inactive)
same,GI50,SF-295,32.4 µM (inactive)
same,GI50,TK-10,70.6 µM (inactive)
same,GI50,SF-268,> 100 µM (inactive)
same,GI50,UO-31,> 100 µM (inactive)
same,GI50,SK-MEL-28,> 100 µM (inactive)
same,GI50,M14,44.7 µM (inactive)
same,GI50,NCI-H522,> 100 µM (inactive)
same,GI50,HCT-116,> 100 µM (inactive)
same,GI50,RPMI-8226,> 100 µM (inactive)
same,GI50,SNB-19,> 100 µM (inactive)
